Values quoted from earlier work as cited in US20070212307A1, “Pharmaceutical Compositions Comprising an Opioid Receptor Antagonist and Methods of Using Same” (priority 2006, published 2007).

Details: 50 mg oral dose

SMILES: O=C1CC[C@@]2(O)[C@H]3Cc4ccc(O)c5c4[C@@]2(CCN3CC2CC2)[C@H]1O5 [naltrexone]
- oral bioavailability: 10%-25%
